For one experiment, the system named is LDL. As to the kind of experiment: Cu^2+-induced LDL oxidation in vitro (conjugated dienes, absorbance at 234 nm). Also on record: key to Lag phase / Oxidation rate / Maximum quantity of dienes: NC: Not calculated since the samples totally inhibits the LDL from oxidation. It counts as biochemical. How it is done: LDL was concentrated from the plasma of normolipidemic donors by density gradient ultracentrifugation. Prior to oxidation, LDL was diluted in a phosphate buffered saline (PBS) and dialyzed against PBS at 4° C. to remove EDTA. The protein content was determined and adjusted to obtain 0.125 mg of protein/mL. […] The amounts of conjugated dienes were measured by determining the increased absorbance at 234 nm at 10 min intervals for a course span of 720 min using a Tecan Ultra Spectrophotometer (Tecan, Austria). Results were expressed as the relative absorbance at 234 nm. The lag phase, oxidation rate, and the maximum quantity of conjugated dienes were calculated. Results are reported as the mean±SD of three trials for each test. Differential between groups was calculated using the Student's t-test (XLSTAT 2008, Addinsoft™, USA), and the statistical significance was set at P<0.05.

A further experiment deals with T1, human PPARγ (Homo sapiens, UniProt P37231).
T1 sequence (P37231 1-505): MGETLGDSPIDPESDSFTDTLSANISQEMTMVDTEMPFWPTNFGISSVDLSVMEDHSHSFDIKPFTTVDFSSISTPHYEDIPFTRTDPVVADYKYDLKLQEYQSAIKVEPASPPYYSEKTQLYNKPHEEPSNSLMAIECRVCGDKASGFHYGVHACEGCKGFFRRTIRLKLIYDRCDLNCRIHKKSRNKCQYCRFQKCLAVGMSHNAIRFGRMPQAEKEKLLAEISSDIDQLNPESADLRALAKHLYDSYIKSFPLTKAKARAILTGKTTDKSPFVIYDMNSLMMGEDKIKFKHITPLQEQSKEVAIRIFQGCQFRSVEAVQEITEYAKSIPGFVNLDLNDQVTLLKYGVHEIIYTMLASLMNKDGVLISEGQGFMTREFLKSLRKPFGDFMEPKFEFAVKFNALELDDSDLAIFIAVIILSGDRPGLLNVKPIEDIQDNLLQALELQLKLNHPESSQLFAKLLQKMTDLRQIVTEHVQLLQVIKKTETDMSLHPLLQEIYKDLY
The following applies: cited from earlier work.

The next experiment concerns olive oil-loaded mice. The following applies: doses of 5-20 mg/kg; cited from earlier work.
The target in another experiment is T2, pancreatic lipase (Homo sapiens, UniProt P16233).
T2 sequence (P16233 17-465): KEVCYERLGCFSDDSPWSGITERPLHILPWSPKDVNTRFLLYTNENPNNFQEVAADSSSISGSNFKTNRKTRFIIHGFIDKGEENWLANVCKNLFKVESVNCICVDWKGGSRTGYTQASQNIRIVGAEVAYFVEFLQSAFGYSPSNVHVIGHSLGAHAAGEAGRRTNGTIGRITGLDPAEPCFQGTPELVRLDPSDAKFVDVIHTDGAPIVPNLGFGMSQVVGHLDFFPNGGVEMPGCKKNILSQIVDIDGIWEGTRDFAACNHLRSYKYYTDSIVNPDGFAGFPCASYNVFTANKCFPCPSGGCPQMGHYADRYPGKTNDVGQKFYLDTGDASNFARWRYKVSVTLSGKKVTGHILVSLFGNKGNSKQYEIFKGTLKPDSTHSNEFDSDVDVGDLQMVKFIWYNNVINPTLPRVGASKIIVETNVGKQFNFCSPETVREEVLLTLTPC
The settings on record: cited from earlier work.

The next experiment deals with mice fed a high fat diet. The settings on record: 20 mg/kg/day; after 14 days; cited from earlier work.

Consider `Cc1c(C)c2c(c(C)c1O)CCC(C)(C(=O)O)O2` (stereo not shown) [Trolox], for which, in the experiment with LDL (10 μM, mean ± SD, three trials), the Lag phase is given as 180 ± 5.2 min, the “Maximum quantity of dienes” value is reported as 99.0 ± 1.2 nmol/mg of LDL and the Oxidation rate was 80.1 ± 4.1 min⁻¹. Besides, in the experiment with LDL (100 μM), the Lag phase result was “NC”, the “Maximum quantity of dienes” value is “NC”, the Oxidation rate entry was “NC” and the “inhibition of LDL oxidation” value is given as “complete inhibition”.

In the case of `CC(C)c1cc2c(c(O)c1O)[C@@]1(C(=O)O)CCCC(C)(C)[C@@H]1CC2` [carnosic acid], the “activation of human PPARγ” value on human PPARγ is “activators”. For the same compound, in the experiment with olive oil-loaded mice, the triglyceride elevation entry was “significantly inhibited”. The pancreatic lipase activity result on pancreatic lipase is recorded as “substantially inhibited”. For the same compound, in the experiment with mice fed a high fat diet, the “gain of body weight and accumulation of epididymal fat weight” value was “reduced”.

Regarding `CC(C)c1cc2c(c(O)c1O)[C@@]13CCCC(C)(C)[C@@H]1C[C@@H]2OC3=O` [carnosol], the “activation of human PPARγ” value on human PPARγ is listed as “activators”. Besides, the pancreatic lipase activity entry on pancreatic lipase is reported as “substantially inhibited”.

The record behind these values is US9011936B2, “Extract of Rosmarinus officinalis L. leaves for pharmaceutical applications” (Naturex, S.A., priority 2009, dated 2015).
